Data published in US20260297087A1, “Pyridoimidazolone Compounds, Preparation Thereof and Therapeutic Uses Thereof” (Sanofi, priority 2023, published 2026).
Like-named read-outs stand apart in the source and are kept apart here.

What was measured:
[1] = biological target: T1, ERK5 (activated catalytic domain) (Homo sapiens, UniProt Q13164); experiment: Cell-Free Assay of ERK5 Inhibition (Time-Resolved FRET, 4EBP1 peptide phosphorylation); format: biochemical
T1 construct: purchased CarnaBiosciences 04-146
Experimental: (§1) Two assays were performed to assess the ERK5 inhibitory activity of compounds of the Examples, a cell-based assay and a cell-free biochemical assay. Where repeat measurements were taken, the value reported is a mean average.
An assay was performed to measure the capacity of each compound to inhibit ERK5 enzymatic activity. Compound potency was evaluated by Time-Resolved Forster Resonance Energy Transfer (FRET system). The activated catalytic domain of protein ERK5 (CarnaBiosciences #04-146) was mixed at 4 nM with varying concentrations of compound and incubated for 30 minutes at room temperature. A mixture of 1 mM ATP and 1 μM biotinylated synthetic peptide was added (Biosyntan GmbH). This synthetic peptide represents amino acids 30-52 of Eukaryotic translation initiation factor 4E-binding protein 1 (see, e.g., the sequence under accession No. NP_004086.1) biotinylated at the N-terminus. After 30 minutes at 37° C., the peptide phosphorylation by ERK5 was measured by addition of FRET reagents consisting of 12.5 μg/ml Streptavidin-XL665, 1 nM Anti-P-4EBP1 antibody and 300 ng/ml Anti-rabbit-K antibody. Following 90 minutes at room temperature fluorescent signals were read on the Pherastar FSX multimod detector from BMG Labtech (Exc° 340 nm, Em1 620 nm, Em2 665 nm). The IC50 values represent the concentration of compound which inhibits the measurable fluorescence signal by 50% as compared to the DMSO only control.

ERK5 = biological target: T2, ERK5 (Homo sapiens, UniProt Q13164); experiment: Inhibition of Cellular ERK5 Activity (cell-based assay, MEF2 luciferase reporter in SN12C cells); details: renal cancer cell line SN12C, doxycycline-induced MEKSDD, mean where repeated
T2 construct: MEF2-luciferase reporter
Experimental: as §1
The renal cancer cell line SN12C was transduced by a lentivirus pGreenFire1 MEF2 EF1 Neo (ref TR030VA-N) from SBI using standard infection protocol. pGreenFire1 MEF2 EF1 Neo allows the expression of luciferase gene under the control of minimal promoter with MEF2 transcriptional response elements. Cells harboring the reporter construct were selected by geneticin treatment. The selected cells were then transposed by a piggyback based plasmid pCM4007 allowing the expression of constitutively activated MEKSDD under control of TREG3 promoter, a doxycycline regulated promoter. Transposed cells were selected by puromycin treatment. Upon doxycycline treatment (1p g/ml) MEKSDD was expressed. MEKSDD activates ERK5 that phosphorylates MEF2C protein. Activated MEF2C protein can bind to its transcriptional response elements. Then the luciferase is expressed. In a 96-well plate (96F nuncleon refl37101 thermofisher), 50,000 cells were inoculated in 142.5 μl of RPMI medium containing 10% fetal calf serum, 1% glutamine, and 1 μg/ml doxycycline. After 24 hours, compounds were added in 7.5 μl culture medium (with 2% DMSO to give a final concentration of 0.1%) in order to obtain the desired concentration (0.3-1000 nM). The luciferase activity was measured using the Kit Bright Glo Luminescent Cell Assay Cat E2610 (Promega) according to the manufacturer's protocol. Luminescence was determined using 0.2 second reading/well using a Tecan SPARK. IC50 values were calculated using XLFIT5 for Microsoft Excel using method 205. The IC50 values represent the concentration of compound which inhibits the measurable luminescence signal by 50% as compared to DMSO-treated control cells.

[2] = ERK5 catalytic domain 4 nM, 1 mM ATP, 1 μM biotinylated 4EBP1 peptide, 30 min at 37° C., mean where repeated, read-out: Cell-free assay (IC50 in nM)

T1 sequence (Q13164 55-347 limits assumed): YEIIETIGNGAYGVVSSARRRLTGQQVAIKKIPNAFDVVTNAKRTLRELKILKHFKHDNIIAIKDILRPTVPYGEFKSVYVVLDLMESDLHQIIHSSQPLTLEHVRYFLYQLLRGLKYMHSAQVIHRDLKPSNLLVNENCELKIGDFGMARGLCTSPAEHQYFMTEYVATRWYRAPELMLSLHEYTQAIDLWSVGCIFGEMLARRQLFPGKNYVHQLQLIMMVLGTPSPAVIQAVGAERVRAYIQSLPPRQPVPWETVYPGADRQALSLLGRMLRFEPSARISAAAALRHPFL
T2 sequence (Q13164 whole entry): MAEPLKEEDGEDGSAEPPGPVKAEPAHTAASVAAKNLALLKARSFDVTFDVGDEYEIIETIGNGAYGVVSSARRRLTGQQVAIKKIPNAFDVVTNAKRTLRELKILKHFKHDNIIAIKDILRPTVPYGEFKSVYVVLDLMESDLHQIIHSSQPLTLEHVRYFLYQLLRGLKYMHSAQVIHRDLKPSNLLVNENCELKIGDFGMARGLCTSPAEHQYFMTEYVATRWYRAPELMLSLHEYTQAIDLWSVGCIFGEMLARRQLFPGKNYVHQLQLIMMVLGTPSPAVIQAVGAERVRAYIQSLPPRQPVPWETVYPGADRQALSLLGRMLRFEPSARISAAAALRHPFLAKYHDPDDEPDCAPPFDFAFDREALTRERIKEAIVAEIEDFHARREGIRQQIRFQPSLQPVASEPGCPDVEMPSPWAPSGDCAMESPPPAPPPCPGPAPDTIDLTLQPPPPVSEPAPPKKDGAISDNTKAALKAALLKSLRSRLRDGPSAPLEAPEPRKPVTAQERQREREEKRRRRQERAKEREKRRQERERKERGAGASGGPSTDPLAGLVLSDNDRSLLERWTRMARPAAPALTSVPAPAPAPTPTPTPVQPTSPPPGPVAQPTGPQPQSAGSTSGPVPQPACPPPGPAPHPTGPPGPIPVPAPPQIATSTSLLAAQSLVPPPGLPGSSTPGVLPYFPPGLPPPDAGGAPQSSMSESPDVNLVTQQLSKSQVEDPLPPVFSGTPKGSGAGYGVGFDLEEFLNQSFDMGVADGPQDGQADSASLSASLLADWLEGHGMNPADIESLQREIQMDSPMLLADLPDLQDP

Structure (SMILES)	IC50 [1, 2] [nM]	IC50 (ERK5) [nM]	IC50 ([1]; footnote: repeat measurement, mean average value, read-out: Cell-free assay IC50, repeat measurement) [nM]
Nc1cc(OC(F)(F)F)ccc1C(=O)N1CCC(n2c(=O)[nH]c3ncc(OC4CCOC4)cc32)CC1 (racemic) [Example 55, (rac)-1-[1-[2-amino-4-(trifluoromethoxy)benzoyl]-4-piperidyl]-6-[tetrahydrofuran-3-yl]oxy-3H-imidazo[4,5-b]pyridin-2-one]	87	83	–
O=C(c1ccc(OC(F)(F)F)cc1)N1CCC(n2c(=O)[nH]c3ncc(OC4CCOC4)cc32)CC1 (racemic) [Example 56, (rac)-6-tetrahydrofuran-3-yloxy-1-[1-[4-(trifluoromethoxy)benzoyl]-4-piperidyl]-3H-imidazo[4,5-b]pyridin-2-one]	430	96	–
Nc1cc(OC(F)(F)F)ccc1C(=O)N1CCC(n2c(=O)[nH]c3ncc(OC4CCOC4)cc32)CC1 (single isomer, unassigned; isomer 1) [Example 43, 1-[1-[2-amino-4-(trifluoromethoxy)benzoyl]-4-piperidyl]-6-[tetrahydrofuran-3-yl]oxy-3H-imidazo[4,5-b]pyridin-2-one, Isomer 1]	150	74	–
CN1CCC(Oc2cnc3[nH]c(=O)n(C4CCN(C(=O)c5ccc(OC(F)(F)F)cc5N)CC4)c3c2)C1 (single isomer, unassigned; isomer 1) [Example 47, 1-[1-[2-amino-4-(trifluoromethoxy)benzoyl]-4-piperidyl]-6-[1-methylpyrrolidin-3-yl]oxy-3H-imidazo[4,5-b]pyridin-2-one, Isomer 1]	239	273	–
Nc1cc(OC(F)(F)F)ccc1C(=O)N1CCC(n2c(=O)[nH]c3ncc(OC4CCOC4)cc32)CC1 (single isomer, unassigned; isomer 2) [Example 44, 1-[1-[2-amino-4-(trifluoromethoxy)benzoyl]-4-piperidyl]-6-[tetrahydrofuran-3-yl]oxy-3H-imidazo[4,5-b]pyridin-2-one, Isomer 2]	310	169	–
Nc1cc(OC(F)(F)F)ccc1C(=O)N1CCC(n2c(=O)[nH]c3ncc(OC4CCOCC4)cc32)CC1 [Example 1, 1-[1-[2-amino-4-(trifluoromethoxy)benzoyl]-4-piperidyl]-6-tetrahydropyran-4-yloxy-3H-imidazo[4,5-b]pyridin-2-one]	29	48	–
Nc1cc(OC(F)(F)F)ccc1C(=O)N1CCC(n2c(=O)[nH]c3ncc(C4CCOCC4)cc32)CC1 [Example 2, 1-[1-[2-amino-4-(trifluoromethoxy)benzoyl]-4-piperidyl]-6-tetrahydropyran-4-yl-3H-imidazo[4,5-b]pyridin-2-one]	48	68	–
Nc1cc(OC(F)(F)F)ccc1C(=O)N1CCC(n2c(=O)[nH]c3ncc(N4CCOCC4)cc32)CC1 [Example 3, 1-[1-[2-amino-4-(trifluoromethoxy)benzoyl]-4-piperidyl]-6-N-morpholino-3H-imidazo[4,5-b]pyridin-2-one]	77	72	–
CN1CCC(Oc2cnc3[nH]c(=O)n(C4CCN(C(=O)c5ccc(OC(F)(F)F)cc5)CC4)c3c2)CC1 [Example 5, 6-[(1-methyl-4-piperidyl)oxy]-1-[1-[4-(trifluoromethoxy)benzoyl]-4-piperidyl]-3H-imidazo[4,5-b]pyridin-2-one]	150	206	–
O=C(c1ccc(OC(F)(F)F)cc1)N1CCC(n2c(=O)[nH]c3ncc(N4CCOCC4)cc32)CC1 [Example 8, 6-N-morpholino-1-[1-[4-(trifluoromethoxy)benzoyl]-4-piperidyl]-3H-imidazo[4,5-b]pyridin-2-one]	505	279	–
O=C(c1ccc(OC(F)(F)F)cc1)N1CCC(n2c(=O)[nH]c3ncc(N4CCO[C@@H](CO)C4)cc32)CC1 [Example 11, 6-[(2R)-2-(hydroxymethyl)morpholin-4-yl]-1-[1-[4-(trifluoromethoxy)benzoyl]-4-piperidyl]-3H-imidazo[4,5-b]pyridin-2-one]	1050	1830	–
O=C(c1ccc(OC(F)(F)F)cc1)N1CCC(n2c(=O)[nH]c3ncc(N4CCO[C@H](CO)C4)cc32)CC1 [Example 12, 6-[(2S)-2-(Hydroxymethyl)morpholin-4-yl]-1-[1-[4-(trifluoromethoxy)benzoyl]-4-piperidyl]-3H-imidazo[4,5-b]pyridin-2-one]	442	1860	–
O=C(c1ccc(OC(F)(F)F)cc1)N1CCC(n2c(=O)[nH]c3ncc(C4CCCC4)cc32)CC1 [Example 17, 6-Cyclopentyl-1-[1-[4-(trifluoromethoxy)benzoyl]-4-piperidyl]-3H-imidazo[4,5-b]pyridin-2-one]	198	178	–
O=C(c1ccc(OC(F)(F)F)cc1O)N1CCC(n2c(=O)[nH]c3ncc(C4CCOCC4)cc32)CC1 [Example 18, 1-[1-[2-Hydroxy-4-(trifluoromethoxy)benzoyl]-4-piperidyl]-6-tetrahydropyran-4-yl-3H-imidazo[4,5-b]pyridin-2-one]	54	90	82
Cc1nc2[nH]c(=O)n(C3CCN(C(=O)c4ccc(OC(F)(F)F)cc4N)CC3)c2cc1C1CCOCC1 [Example 20, 1-[1-[2-amino-4-(trifluoromethoxy)benzoyl]-4-piperidyl]-5-methyl-6-tetrahydropyran-4-yl-3H-imidazo[4,5-b]pyridin-2-one]	1100	486	–

Results, then the compound that gave them:

IC50 [1, 2] [nM]	IC50 (ERK5) [nM]	IC50 ([1]; footnote: repeat measurement, mean average value, read-out: Cell-free assay IC50, repeat measurement) [nM]	Structure (SMILES)
78	117	–	CN1CCC(Oc2cnc3[nH]c(=O)n(C4CCN(C(=O)c5ccc(OC(F)(F)F)cc5N)CC4)c3c2)C1 (single isomer, unassigned; isomer 2) [Example 48, 1-[1-[2-amino-4-(trifluoromethoxy)benzoyl]-4-piperidyl]-6-[1-methylpyrrolidin-3-yl]oxy-3H-imidazo[4,5-b]pyridin-2-one, Isomer 2]
135	132	–	O=C(c1ccc(OC(F)(F)F)cc1)N1CCC(n2c(=O)[nH]c3ncc(OC4CCOCC4)cc32)CC1 [Example 4, 6-tetrahydropyran-4-yloxy-1-[1-[4-(trifluoromethoxy)benzoyl]-4-piperidyl]-3H-imidazo[4,5-b]pyridin-2-one]
63	248	–	CN1CCC(Oc2cnc3[nH]c(=O)n(C4CCN(C(=O)c5ccc(OC(F)(F)F)cc5N)CC4)c3c2)CC1 [Example 7, 1-[1-[2-amino-4-(trifluoromethoxy)benzoyl]-4-piperidyl]-6-[(1-methyl-4-piperidyl)oxy]-3H-imidazo[4,5-b]pyridin-2-one]
103	870	–	Nc1cc(OC(F)(F)F)ccc1C(=O)N1CCC(n2c(=O)[nH]c3ncc(N4CCO[C@H](CO)C4)cc32)CC1 [Example 10, 1-[1-[2-amino-4-(trifluoromethoxy)benzoyl]-4-piperidyl]-6-[(2S)-2-(hydroxymethyl)morpholin-4-yl]-3H-imidazo[4,5-b]pyridin-2-one]
225	1330	–	Nc1cc(OC(F)(F)F)ccc1C(=O)N1CCC(n2c(=O)[nH]c3ncc(N4CCO[C@@H](CO)C4)cc32)CC1 [Example 13, 1-[1-[2-Amino-4-(trifluoromethoxy)benzoyl]-4-piperidyl]-6-[(2R)-2-(hydroxymethyl)morpholin-4-yl]-3H-imidazo[4,5-b]pyridin-2-one]
122	118	–	Nc1cc(S(F)(F)(F)(F)F)ccc1C(=O)N1CCC(n2c(=O)[nH]c3ncc(C4CCOCC4)cc32)CC1 [Example 14, 1-[1-[2-Amino-4-(pentafluoro-λ^6-sulfanyl)benzoyl]-4-piperidyl]-6-tetrahydropyran-4-yl-3H-imidazo[4,5-b]pyridin-2-one]
257	199	–	O=C(c1ccc(S(F)(F)(F)(F)F)cc1)N1CCC(n2c(=O)[nH]c3ncc(C4CCOCC4)cc32)CC1 [Example 19, 1-[1-[4-(Pentafluoro-λ^6-sulfanyl)benzoyl]-4-piperidyl]-6-tetrahydropyran-4-yl-3H-imidazo[4,5-b]pyridin-2-one]
